For twelve compounds, IC50 results are on record in ChEMBL document CHEMBL4251728, “Toll-like Receptors for the Treatment of Autoimmune, Inflammation, and Infectious Diseases” (ACS Med Chem Lett, 2018).

The structures appear in SMILES notation.

This assay has as its target T1, Toll-like receptor 7 (Homo sapiens, UniProt Q9NYK1).
T1 sequence (Q9NYK1 whole entry): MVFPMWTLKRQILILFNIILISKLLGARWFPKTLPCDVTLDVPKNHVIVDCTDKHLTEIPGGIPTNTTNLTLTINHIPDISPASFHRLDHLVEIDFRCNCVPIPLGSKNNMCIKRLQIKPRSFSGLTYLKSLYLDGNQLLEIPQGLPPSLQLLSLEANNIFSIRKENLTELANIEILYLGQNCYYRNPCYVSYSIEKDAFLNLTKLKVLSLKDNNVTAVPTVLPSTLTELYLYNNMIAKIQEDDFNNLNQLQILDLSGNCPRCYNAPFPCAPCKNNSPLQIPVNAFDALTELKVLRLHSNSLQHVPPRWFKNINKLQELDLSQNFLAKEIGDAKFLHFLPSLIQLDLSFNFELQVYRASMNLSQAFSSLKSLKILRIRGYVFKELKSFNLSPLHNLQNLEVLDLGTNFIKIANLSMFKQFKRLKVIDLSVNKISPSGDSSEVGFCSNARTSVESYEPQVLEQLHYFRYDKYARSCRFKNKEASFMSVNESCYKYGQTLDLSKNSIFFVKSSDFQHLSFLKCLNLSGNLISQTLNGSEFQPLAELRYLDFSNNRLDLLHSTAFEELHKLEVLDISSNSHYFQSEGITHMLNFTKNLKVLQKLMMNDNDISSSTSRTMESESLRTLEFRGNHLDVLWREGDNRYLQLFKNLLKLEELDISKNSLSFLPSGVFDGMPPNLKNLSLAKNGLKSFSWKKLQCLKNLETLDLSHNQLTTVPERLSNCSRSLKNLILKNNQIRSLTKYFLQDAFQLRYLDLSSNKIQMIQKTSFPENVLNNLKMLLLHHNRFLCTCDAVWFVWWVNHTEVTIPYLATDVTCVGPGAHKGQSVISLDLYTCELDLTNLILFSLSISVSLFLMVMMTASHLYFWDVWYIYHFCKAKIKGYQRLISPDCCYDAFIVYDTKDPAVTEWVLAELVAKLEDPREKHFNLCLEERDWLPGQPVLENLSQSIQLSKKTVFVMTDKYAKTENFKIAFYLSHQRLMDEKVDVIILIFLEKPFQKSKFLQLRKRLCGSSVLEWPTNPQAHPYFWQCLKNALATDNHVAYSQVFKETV
The assay is described as follows: Antagonist activity at TLR7 in HEK cells assessed as decrease in R848-induced NF-kappaB activation incubated for 30 mins followed by R848 addition measured after 5 hrs by steady-Glo reagent based assay. The class given is cell-based.
In the case of `C[C@H]1C[C@@H](NC(=O)[C@@H](O)C(C)(C)C)C[C@H](c2ccc(C(F)(F)F)c3nccnc23)C1`, the IC50 is < 1000 nM.

For the compound `C[C@@H]1C[C@H](c2ccc(C#N)c3ncccc23)CN(C(=O)CN2CCN(C)CC2)C1`, the IC50 is < 1000 nM.

As to `C[C@@H]1C[C@H](c2ccc(C(F)(F)F)c3ncccc23)CN(C(=O)NC2CC2)C1`, the half-inhibitory concentration (IC50) lay within 1000 to 20000 nM.

For `C[C@@H]1C[C@H](c2ccc(C#N)c3ncccc23)CN(C(=O)CC2C3CC2CN(C)C3)C1` (some centres not stated), the half-inhibitory concentration (IC50) was < 1000 nM.

With `C[C@@H]1C[C@@H](c2ccc(C#N)c3ncccc23)CN(C(=O)C[C@H]2[C@@H]3CNC[C@@H]32)C1`, the half-inhibitory concentration (IC50) is < 1000 nM.

Take `C[C@@H]1C[C@H](N)C[C@@H](c2ccc(C(F)(F)F)c3nccnc23)C1`: the IC50 was < 1000 nM.

Turning to `CC1CC(c2ccc(C#N)c3ncccc23)CN(CC2CCN(C)C2)C1` (configuration not stated), the concentration for half-maximal inhibition (IC50) is < 1000 nM.

With `C[C@@H]1C[C@H](c2ccc(C#N)c3ncccc23)CN(C(=O)NC2CCN(C)CC2)C1`, the IC50 is < 1000 nM.

Take `C[C@@H]1C[C@@H](c2ccc(C(F)(F)F)c3ncccc23)CN(C(=O)CCn2cccn2)C1`: the half-inhibitory concentration (IC50) is > 20000 nM.

As for `Cc1ccc([C@H]2C[C@@H](C)CN(C(=O)CC3CCN(C)CC3)C2)c2cccnc12`, the IC50 was < 1000 nM.

For the compound `C[C@@H]1C[C@H](N)C[C@H](c2ccc(C(F)(F)F)c3nccnc23)C1`, the IC50 is < 1000 nM.

Take `C[C@@H]1C[C@H](c2ccc(C#N)c3ncccc23)CN(C(=O)CC2CCN(C)CC2)C1`: the IC50 was < 1000 nM.

One may read the IC50 as the concentration needed to halve the response being measured.
